Experimental data: US6414145B1, “Imidazolyl compounds as inhibitors of farnesyl-protein tranferase” (Zeneca Limited, priority 1997, dated 2002)

How the values were obtained:
[1] = target: T1, Farnesyl protein transferase (FPT) (Homo sapiens, UniProt P49354+P49356); test: Farnesyl protein transferase (FPT) inhibition, tritiated farnesyl pyrophosphate incorporation into Kras (CVIM); assay type: biochemical; details: FPT partially purified from human placenta; 300 nM tritiated farnesyl pyrophosphate, 120 nM ras-CVIM, 20 minutes at 37°
T1 construct: partially purified from human placenta by ammonium sulphate fractionation; from tissue; host or cells: human placenta
Method: Biological activity was tested as follows. Farnesyl protein transferase (FPT) was partially purified from human placenta by ammonium sulphate fractionation followed by a single Q-Sepharose™ (Pharmacia, Inc) anion exchange chromatography essentially as described by Ray and Lopez-Belmonte (Ray K P and Lopez-Belmonte J (1992) Biochemical Society Transations 20 494-497). The substrate for FPT was Kras (CVIM C-terminal sequence). The cDNA for oncogenic va112 variant of human c-Ki-ras-2 4B was obtained from the plasmid pSW11-1 (ATCC). This was then subcloned into the polylinker of a suitable expression vector e.g. pIC147, The Kras was obtained after expression in the E. coli strain, BL21. The expression and purification of c-KI-ras-2 4B and the val12 variant in E. coli has also been reported by Lowe et al (Lowe P N et al. J. Biol. Chem. (1991) 266 1672-1678).
Incubations with enzyme contained 300 nM tritiated farnesyl pyrophosphate (DuPont/New England Nuclear), 120 nM ras-CVIM, 50 mM Tris HCl pH 8.0, 5 mM MgCl2, 10 μM ZnCl2, 5 mM dithiotheitol and compounds were added at appropriate concentrations in DMSO (3% final concentration in test and vehicle control). […] Precipitated protein was then collected onto glass fibre filter mats (B) using a Tomtec™ cell harvester and tritiated label was measured in a Wallac™ 1204 Betaplate scintillation counter.

Row | melting point [°C] | IC50 [1] [nM] | SMILES
1 | 98 to 100 |  | CSCC[C@H](NC(=O)c1cccc(/C=C(\Cn2ccnc2)c2ccc(F)cc2)c1)C(=O)O [Example 3, (2S)-2-{3-[(Z)-2-(4-fluorophenyl)-3-(imidazol-1-yl)-prop-1-enyl]-benzamido}-4-methylsulfanylbutyric acid]
2 |  | ~150 | CSCC[C@H](NC(=O)c1ccc(/C=C(\c2ccccc2)C(C)n2ccnc2)cc1)C(=O)O (stereo partly drawn) [Example 6, (2S)-2-{4-[(E)-3-(imidazol-1-yl)-3-methyl-2-phenyl-prop-1-enyl]-benzamido}-4-methylsulfanylbutyric acid]
3 | 106 |  | CSCC[C@H](NC(=O)c1ccc(/C=C(/Cn2ccnc2)c2ccc(F)cc2)cc1)C(=O)O [Example 12, (2S)-2-{4-[(E)-2-(4-Fluorophenyl)-3-(imidazol-1-yl)-prop-1-en-1-yl]benzamido}-4-methylsulfanylbutyric acid]
